Test [1] is described as follows: Keratin reducing effect on human skin (Charm View). The class given is in vivo. The procedure: In order to investigate whether syringaresinol can reduce the keratin of skin, syringaresinol of the same concentration as in Test Example 6 was applied on the inside of the lower arms of 50 male and female adults in their 20s and 30s and without skin diseases. 24 hours later, the reduced amount of keratin was measuring using Charm View (Moritex, Japan). The initial amount of skin keratin prior to application of the test substance measured with Charm View under a constant-temperature (24° C.), constant-humidity (40%) condition was used as a reference value, and the change in the amount of keratin was measured 24 hours later.

For a further test, the system named is involucrin. Nature of the test: Involucrin expression promoting effect in human keratinocytes. The format is cell-based. The following applies: HaCaT cells, FIG. 5. The procedure: (§1) Human keratinocyte HaCaT cells were cultured in substantially the same manner as in Test Example 10.
cDNA was synthesized in substantially the same manner as in Test Example 10 and the expression pattern of the filaggrin, involucrin and GAPDH genes was monitored substantially the same manner as in Test Example 10 using the synthesized cDNA and predesigned primers and probes (Applied Biosystems; […]; GAPDH, Hs99999905_ml).

The test system of the next test is SIRT1. Nature of the test: SIRT1 expression promoting effect in human fibroblasts. The format is cell-based. The following applies: HDF cells, 20, 50 or 100 μM, 24 hours, FIG. 4. The procedure:
Human keratinocyte HaCaT cells or human fibroblast HDF cells were cultured under the condition of 37° C. and 5% CO2 in DMEM ((Gibco 1210-0038)) containing 10% fetal bovine serum.
The cultured cells were treated with syringaresinol dissolved in DMSO at a concentration of 20, 50 or 100 μM for 24 hours. Separately from this, the cells were treated with DMSO of 1/1000 of the volume of the culture medium as a negative control. After treating with the test substance, the cells were washed twice with cold PBS and RNA was extracted using TRIzol reagent (Invitrogen). Then, cDNA was synthesized using 1 μg/μL of the extracted RNA and a reverse transcription system (Promega). The expression pattern of the SIRT1 and GAPDH genes was monitored using the synthesized cDNA and predesigned primers and probes (Applied Biosystems; SIRT1, Hs01009006_ml; GAPDH, Hs99999905_ml). PCR reaction and analysis were carried out using the Rotor-Gene 3000 system (Corbett Research, Sydney, Australia). The result is shown in FIG. 3 (keratinocytes) and FIG. 4 (fibroblasts).

A short description of test [2]: Skin wrinkle formation after UVB in hairless mouse. The class given is in vivo, hairless mice (SKH: HR-1). The following applies: UVB 180 mJ/cm^2. The procedure:
30-week-old female hairless mice (SKH: HR-1) weighing 25-39 g were purchased from Charles River Laboratories (Wilmington, Mass., USA). The mice were accustomed to the laboratory environment for a week and then grouped into normal groups and test substance-treated groups, with 5 mice per each group. The mice were allowed free access to water and feed under the condition of 12-hour light/dark cycles, 23.2° C. and 55.10% humidity.
For the test substance-treated groups, a patch of 1% syringaresinol dissolved in a solvent (1,3-butylene glycol:ethanol=7:3) was applied 2 times for 2 days or 200 mg/kg syringaresinol was orally administered. The control groups were treated in the same way using the solvent of the same amount instead of syringaresinol. The syringaresinol-applied group, syringaresinol oral administration group and control groups were exposed to UVB of 180 mJ/cm^2. Before and after the UV radiation, skin wrinkles on the exposed part were taken with replica and measured using the Visiometer system (C+K).
Change (%)=[(Tdi−Tdo)/(Tdo)]×100 [Equation 4]
Tdi: value measured after UV radiation
Tdo: value measured before UV radiation

The next test has as its system MMP-9. Nature of the test: UV-induced MMP-9 expression in human keratinocytes (western blot). The class given is cell-based. The settings on record: HaCaT cells, 50 μM, UVB 30 mJ/cm^2, FIG. 6. The procedure:
as §1
The cultured cells were treated with trypsin to obtain a single-cell suspension. Then, the cells were distributed in a 6-well plate, with 2×10^5 cells per well, and cultured for 24 hours. Subsequently, after replacing the medium with DMEM not containing fetal bovine serum and culturing again for 24 hours, the cells were treated with 50 μM syringaresinol dissolved in DMSO. After treating for 24 hours, the cells were washed with PBS and UVB of 30 mJ/cm^2 was irradiated in PBS. After discarding the PBS, the cells were added to a medium containing syringaresinol of the same concentration. As a control group, the cells were cultured in the same manner without treating with syringaresinol. […] Then, after centrifuging at 4° C. for 10 minutes with 15,000 g, the supernatant was recovered and protein was quantitated using Bio-Rad Protein Dye ReagentTM. […] Bands on the film were scanned with PowerLook 2100 XL (UMAX) and analyzed with the image-analyzing program ImageMaster 2D Elite (Amersham Bioscience).

Molecules are shown by their SMILES. Some results are limits rather than exact numbers.

For `COc1cc(C2OCC3C(c4cc(OC)c(O)c(OC)c4)OCC23)cc(OC)c1O` (stereo not shown) [Syringaresinol, syringaresinol], the “Amount of skin keratin, 24 hours later” value in test [1] (1% applied on lower arm, 24 hours) is recorded as 11.9. In addition, the “Amount of skin keratin, Before application” value in test [1] (reference value, 24° C., 40% humidity) turned out to be 20.3. The Expression of involucrin entry with involucrin is “increases the expression”. The “Increase of SIRT1 expression” value in the test on SIRT1 was ≥ 4 times. In addition, the “Increase of skin wrinkles (Change %)” value in test [2] (application of 1% patch, control 230±35%) stood at 121±35%; in test [2] (oral administration 200 mg/kg, control 224±45%), 123±25%. Further, in the test with MMP-9, the “UV-induced MMP-9 expression” value was “inhibiting the UV-induced increase of MMP-9 expression”.

These data come from patent publication US20150290105A1, “COMPOSITION COMPRISING SYRINGARESINOL FOR IMPROVING THE SKIN” (AMOREPACIFIC CORPORATION, priority 2011, published 2015).
